Assay results as given in PubChem BioAssay (NCI).
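Method: 48-hour compound exposure of cells in 96-well plates, five concentrations, linear interpolation of endpoints. The concentration for full growth arrest is given as TGI.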

Key:
Assay in all cases: growth of human tumour cells (NCI), 48 h
[1] = test system: OVCAR-8 ovarian
[2] = test system: DU-145 prostate
[3] = test system: M14 melanoma
[4] = test system: NCI-H226 lung
[5] = test system: SR leukemia
[6] = test system: IGROV1 ovarian
[7] = test system: RPMI-8226 leukemia
[8] = test system: NCI/ADR-RES ovarian
[9] = test system: UACC-62 melanoma
[10] = test system: CCRF-CEM leukemia
[11] = test system: A549 NSCLC
[12] = test system: MDA-MB-231 breast

Measured: TGI

CC(C)CC1NC(=O)CCC(NC(=O)C(Cc2ccc(O)cc2)NC(=O)OCc2ccccc2)C(=O)NC(Cc2ccccc2)C(=O)NC(Cc2ccccc2)NC1=O (configuration not stated)
> 100 µM: all assays above
